Results as given in PubChem BioAssay AID2060903 (Molecular Pharmacology Branch, DTP, NCI, 2025).
Blank lines part the entries; values can stand above or below the compound they belong to.

System: 377384-186-R-J1-PDC complex spheroid viability
Assay: Anticancer human tumor 377384-186-R-J1-PDC patient-derived pancreatic carcinoma cell line growth inhibition [RAS]
Settings: for IC50: curve of first compound; for viability, T/C: stronger effect = lower value
In short: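 Agents were tested in combination matrices in half-log decrements from a top concentration at or near clinical Cmax (10 microM if undetermined). Targets were multi-cell spheroids of tumour lines plus HUVEC and MSC stromal cells.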

[1] = second compound 0.0316 µM, first compound 0.0316 µM
[2] = second compound 0.0316 µM, first compound 0.1 µM
[3] = second compound 0.0316 µM, first compound 0.316 µM
[4] = second compound 0.0316 µM, first compound 1 µM
[5] = second compound 0.1 µM, first compound 0.0316 µM
[6] = second compound 0.1 µM, first compound 0.1 µM
[7] = second compound 0.1 µM, first compound 0.316 µM
[8] = second compound 0.1 µM, first compound 1 µM
[9] = second compound 0.316 µM, first compound 0.0316 µM
[10] = second compound 0.316 µM, first compound 0.1 µM
[11] = second compound 0.316 µM, first compound 0.316 µM
[12] = second compound 0.316 µM, first compound 1 µM
[13] = second compound 1 µM, first compound 0.0316 µM
[14] = second compound 1 µM, first compound 0.1 µM
[15] = second compound 1 µM, first compound 0.316 µM
[16] = second compound 1 µM, first compound 1 µM
[17] = second compound 3.16 µM, first compound 0.0316 µM
[18] = second compound 3.16 µM, first compound 0.1 µM
[19] = second compound 3.16 µM, first compound 0.316 µM
[20] = second compound 3.16 µM, first compound 1 µM
[21] = second compound 10 µM, first compound 0.0316 µM
[22] = second compound 10 µM, first compound 0.1 µM
[23] = second compound 10 µM, first compound 0.316 µM
[24] = second compound 10 µM, first compound 1 µM
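Also: spheroids exposed to compounds for seven days before readout.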

IC50 (second compound 0.000949 µM): < 31.6 nM
IC50 (second compound 0.003 µM): < 31.6 nM
IC50 (second compound 0.00949 µM): < 31.6 nM
IC50 (second compound 0.03 µM): < 31.6 nM
IC50 (second compound 0.0949 µM): < 31.6 nM
IC50 (second compound 0.3 µM): < 31.6 nM
Compound: CC(=O)OC12COC1CC(O)C1(C)C(=O)C(O)C3=C(C)C(OC(=O)C(O)C(NC(=O)OC(C)(C)C)c4ccccc4)CC(O)(C(OC(=O)c4ccccc4)C21)C3(C)C (stereo unspecified) + CCn1c(-c2cc(N3CCN(C)CC3)cnc2C(C)OC)c2c3cc(ccc31)-c1csc(n1)CC(NC(=O)C1CC1C)C(=O)N1CCCC(N1)C(=O)OCC(C)(C)C2
viability, T/C (second compound 0.000949 µM, first compound 0.0316 µM): 3.43%
viability, T/C (second compound 0.000949 µM, first compound 0.1 µM): 4.27%
viability, T/C (second compound 0.000949 µM, first compound 0.316 µM): 3.99%
viability, T/C (second compound 0.000949 µM, first compound 1 µM): 4.95%
viability, T/C (second compound 0.000949 µM, first compound 3.16 µM): 5.23%
viability, T/C (second compound 0.000949 µM, first compound 10 µM): 5.38%
viability, T/C (second compound 0.003 µM, first compound 0.0316 µM): 2.96%
viability, T/C (second compound 0.003 µM, first compound 0.1 µM): 1.47%
viability, T/C (second compound 0.003 µM, first compound 0.316 µM): 2.97%
viability, T/C (second compound 0.003 µM, first compound 1 µM): 2.21%
viability, T/C (second compound 0.003 µM, first compound 3.16 µM): 2.97%
viability, T/C (second compound 0.003 µM, first compound 10 µM): 2.38%
viability, T/C (second compound 0.00949 µM, first compound 0.0316 µM): 1.88%
viability, T/C (second compound 0.00949 µM, first compound 0.1 µM): 2.6%
viability, T/C (second compound 0.00949 µM, first compound 0.316 µM): 2%
viability, T/C (second compound 0.00949 µM, first compound 1 µM): 2.25%
viability, T/C (second compound 0.00949 µM, first compound 3.16 µM): 2.05%
viability, T/C (second compound 0.00949 µM, first compound 10 µM): 2.33%
viability, T/C (second compound 0.03 µM, first compound 0.0316 µM): 1.57%
viability, T/C (second compound 0.03 µM, first compound 0.1 µM): 1.84%
viability, T/C (second compound 0.03 µM, first compound 0.316 µM): 1.46%
viability, T/C (second compound 0.03 µM, first compound 1 µM): 1.65%
viability, T/C (second compound 0.03 µM, first compound 3.16 µM): 2.16%
viability, T/C (second compound 0.03 µM, first compound 10 µM): 1.64%
viability, T/C (second compound 0.0949 µM, first compound 0.0316 µM): 1.97%
viability, T/C (second compound 0.0949 µM, first compound 0.1 µM): 1.63%
viability, T/C (second compound 0.0949 µM, first compound 0.316 µM): 1.57%
viability, T/C (second compound 0.0949 µM, first compound 1 µM): 1.56%
viability, T/C (second compound 0.0949 µM, first compound 3.16 µM): 1.78%
viability, T/C (second compound 0.0949 µM, first compound 10 µM): 1.2%
viability, T/C (second compound 0.3 µM, first compound 0.0316 µM): 1.96%
viability, T/C (second compound 0.3 µM, first compound 0.1 µM): 1.22%
viability, T/C (second compound 0.3 µM, first compound 0.316 µM): 2.82%
viability, T/C (second compound 0.3 µM, first compound 1 µM): 1.84%
viability, T/C (second compound 0.3 µM, first compound 3.16 µM): 1.23%
viability, T/C (second compound 0.3 µM, first compound 10 µM): 1.25%

IC50 (second compound 0.0316 µM): < 3.16 nM
IC50 (second compound 0.1 µM): < 3.16 nM
IC50 (second compound 0.316 µM): < 3.16 nM
IC50 (second compound 1 µM): < 3.16 nM
IC50 (second compound 3.16 µM): < 3.16 nM
IC50 (second compound 10 µM): < 3.16 nM
Compound: O=C(c1ccc(F)c(F)c1Nc1ccc(I)cc1F)N1CC(O)([C@@H]2CCCCN2)C1 + C#Cc1c(F)ccc2cc(O)cc(-c3ncc4c(N5CC6CCC(C5)N6)nc(OCC56CCCN5CC(F)C6)nc4c3F)c12
viability, T/C (second compound 0.0316 µM, first compound 0.00316 µM): 19.3%
viability, T/C (second compound 0.0316 µM, first compound 0.01 µM): 12%
viability, T/C [1]: 5.6%
viability, T/C [2]: 2.35%
viability, T/C [3]: 0.7%
viability, T/C [4]: 0.29%
viability, T/C (second compound 0.1 µM, first compound 0.00316 µM): 6.37%
viability, T/C (second compound 0.1 µM, first compound 0.01 µM): 4.57%
viability, T/C [5]: 2.3%
viability, T/C [6]: 1.43%
viability, T/C [7]: 0.58%
viability, T/C [8]: 0.35%
viability, T/C (second compound 0.316 µM, first compound 0.00316 µM): 4.21%
viability, T/C (second compound 0.316 µM, first compound 0.01 µM): 2.12%
viability, T/C [9]: 1.39%
viability, T/C [10]: 0.91%
viability, T/C [11]: 0.54%
viability, T/C [12]: 0.22%
viability, T/C (second compound 1 µM, first compound 0.00316 µM): 1.85%
viability, T/C (second compound 1 µM, first compound 0.01 µM): 1.57%
viability, T/C [13]: 1.12%
viability, T/C [14]: 1.04%
viability, T/C [15]: 0.42%
viability, T/C [16]: 0.15%
viability, T/C (second compound 3.16 µM, first compound 0.00316 µM): 1.79%
viability, T/C (second compound 3.16 µM, first compound 0.01 µM): 1.3%
viability, T/C [17]: 1.31%
viability, T/C [18]: 0.67%
viability, T/C [19]: 0.2%
viability, T/C [20]: 0.21%
viability, T/C (second compound 10 µM, first compound 0.00316 µM): 1.29%
viability, T/C (second compound 10 µM, first compound 0.01 µM): 0.68%
viability, T/C [21]: 0.68%
viability, T/C [22]: 0.65%
viability, T/C [23]: 0.38%
viability, T/C [24]: 0.17%

IC50 (second compound 0.0316 µM): < 31.6 nM
IC50 (second compound 0.1 µM): < 31.6 nM
IC50 (second compound 0.316 µM): < 31.6 nM
IC50 (second compound 1 µM): < 31.6 nM
IC50 (second compound 3.16 µM): < 31.6 nM
IC50 (second compound 10 µM): < 31.6 nM
Compound: CC(=O)OC12COC1CC(O)C1(C)C(=O)C(O)C3=C(C)C(OC(=O)C(O)C(NC(=O)OC(C)(C)C)c4ccccc4)CC(O)(C(OC(=O)c4ccccc4)C21)C3(C)C (stereo unspecified) + C#Cc1c(F)ccc2cc(O)cc(-c3ncc4c(N5CC6CCC(C5)N6)nc(OCC56CCCN5CC(F)C6)nc4c3F)c12
viability, T/C [1]: 2.38%
viability, T/C [2]: 3.09%
viability, T/C [3]: 3.14%
viability, T/C [4]: 3.55%
viability, T/C (second compound 0.0316 µM, first compound 3.16 µM): 3.94%
viability, T/C (second compound 0.0316 µM, first compound 10 µM): 3.06%
viability, T/C [5]: 2.23%
viability, T/C [6]: 2.57%
viability, T/C [7]: 2.12%
viability, T/C [8]: 1.89%
viability, T/C (second compound 0.1 µM, first compound 3.16 µM): 1.87%
viability, T/C (second compound 0.1 µM, first compound 10 µM): 3.18%
viability, T/C [9]: 2.05%
viability, T/C [10]: 2.18%
viability, T/C [11]: 2%
viability, T/C [12]: 2.01%
viability, T/C (second compound 0.316 µM, first compound 3.16 µM): 2.08%
viability, T/C (second compound 0.316 µM, first compound 10 µM): 1.78%
viability, T/C [13]: 1.73%
viability, T/C [14]: 1.59%
viability, T/C [15]: 1.53%
viability, T/C [16]: 1.76%
viability, T/C (second compound 1 µM, first compound 3.16 µM): 1.09%
viability, T/C (second compound 1 µM, first compound 10 µM): 1.72%
viability, T/C [17]: 1.58%
viability, T/C [18]: 1.73%
viability, T/C [19]: 1.51%
viability, T/C [20]: 1.74%
viability, T/C (second compound 3.16 µM, first compound 3.16 µM): 1.58%
viability, T/C (second compound 3.16 µM, first compound 10 µM): 1.95%
viability, T/C [21]: 0.77%
viability, T/C [22]: 0.5%
viability, T/C [23]: 0.68%
viability, T/C [24]: 0.75%
viability, T/C (second compound 10 µM, first compound 3.16 µM): 0.42%
viability, T/C (second compound 10 µM, first compound 10 µM): 0.94%
